Assay results taken from US11091478B2 (Fochon Pharmaceuticals, Ltd., priority 2017, dated 2021).

Assays:
RS4;11 cells = test: Cell proliferation assay (MTS), RS4;11 cells, 72 h; format: cell-based; details: Homo sapiens, RS4-11, 72 h
Method in brief: (§1)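 RS4;11 and DOHH2 cells at 5000 cells/well in RPMI-1640 with 10% FBS were treated with compound at 1.5–10000 nM final, nine points, at 37 °C, 5% CO2. Exposure was 72 h for RS4;11 and 120 h for DOHH2. MTS was added for 2 h, absorbance read at 490/650 nm, and IC50 calculated.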

DOHH2 cells = test: Cell proliferation assay (MTS), DOHH2 cells, 120 h; format: cell-based; details: Homo sapiens, DOHH-2, 120 h
Method in brief: as §1

IC50 (RS4;11 cells) [nM]	SMILES	IC50 (DOHH2 cells) [nM]
12	CC1(C)CCC(CN2CCN(c3ccc(C(=O)NS(=O)(=O)c4cc5c(c([N+](=O)[O-])c4)N[C@@H](CCN4CCC(C)(O)CC4)CO5)c(Oc4cnc5[nH]ccc5c4)c3)CC2)=C(c2ccc(Cl)cc2)C1 [Example 2-11, (S)-2-((1H-pyrrolo[2,3-b]pyridin-5-yl)oxy)-4-(4-((4′-chloro-5,5-dimethyl-3,4,5,6-tetra-hydro-[1,1′-biphenyl]-2-yl)methyl)piperazin-1-yl)-N-((3-(2-(4-hydroxy-4-methylpiper-idin-1-yl)ethyl)-5-nitro-3,4-dihydro-2H-benzo[b][1,4]oxazin-7-yl)sulfonyl)benzamide]	53
1	CN(C)CC[C@H]1COc2cc(S(=O)(=O)NC(=O)c3ccc(N4CCN(CC5=C(c6ccc(Cl)cc6)CC(C)(C)CC5)CC4)cc3Oc3cnc4[nH]ccc4c3)cc([N+](=O)[O-])c2N1 [Example 2-12, (S)-2-((1H-pyrrolo[2,3-b]pyridin-5-yl)oxy)-4-(4-((4′-chloro-5,5-dimethyl-3,4,5,6-tetra-hydro-[1,1′-biphenyl]-2-yl)methyl)piperazin-1-yl)-N-((3-(2-(dimethylamino)ethyl)-5-nitro-3,4-dihydro-2H-benzo[b][1,4]oxazin-7-yl)sulfonyl)benzamide]	19
9	CC1(C)CCC(CN2CCN(c3ccc(C(=O)NS(=O)(=O)c4cc5c(c([N+](=O)[O-])c4)N[C@@H](CCO)CO5)c(Oc4cnc5[nH]ccc5c4)c3)CC2)=C(c2ccc(Cl)cc2)C1 [Example 2-13, (S)-2-((1H-pyrrolo[2,3-b]pyridin-5-yl)oxy)-4-(4-((4′-chloro-5,5-dimethyl-3,4,5,6-tetra-hydro-[1,1′-biphenyl]-2-yl)methyl)piperazin-1-yl)-N-((3-(2-hydroxyethyl)-5-nitro-3,4-dihydro-2H-benzo[b][1,4]oxazin-7-yl)sulfonyl)benzamide]	33
4	CN1CCN(CC[C@@H]2COc3cc(S(=O)(=O)NC(=O)c4ccc(N5CCN(CC6=C(c7ccc(Cl)cc7)CC(C)(C)CC6)CC5)cc4Oc4cnc5[nH]ccc5c4)cc([N+](=O)[O-])c3N2)CC1 [Example 2-14, (R)-2-((1H-pyrrolo[2,3-b]pyridin-5-yl)oxy)-4-(4-((4′-chloro-5,5-dimethyl-3,4,5,6-tetra-hydro-[1,1′-biphenyl]-2-yl)methyl)piperazin-1-yl)-N-((3-(2-(4-methylpiperazin-1-yl)eth-yl)-5-nitro-3,4-dihydro-2H-benzo[b][1,4]oxazin-7-yl)sulfonyl)benzamide]	15
20	CC1(C)CCC(CN2CCN(c3ccc(C(=O)NS(=O)(=O)c4cc5c(c([N+](=O)[O-])c4)N[C@H](CCN4CCC(C)(O)CC4)CO5)c(Oc4cnc5[nH]ccc5c4)c3)CC2)=C(c2ccc(Cl)cc2)C1 [Example 2-15, (R)-2-((1H-pyrrolo[2,3-b]pyridin-5-yl)oxy)-4-(4-((4′-chloro-5,5-dimethyl-3,4,5,6-tetra-hydro-[1,1′-biphenyl]-2-yl)methyl)piperazin-1-yl)-N-((3-(2-(4-hydroxy-4-methylpiper-idin-1-yl)ethyl)-5-nitro-3,4-dihydro-2H-benzo[b][1,4]oxazin-7-yl)sulfonyl)benzamide]	50
4	CN(C)CC[C@@H]1COc2cc(S(=O)(=O)NC(=O)c3ccc(N4CCN(CC5=C(c6ccc(Cl)cc6)CC(C)(C)CC5)CC4)cc3Oc3cnc4[nH]ccc4c3)cc([N+](=O)[O-])c2N1 [Example 2-16, (R)-2-((1H-pyrrolo[2,3-b]pyridin-5-yl)oxy)-4-(4-((4′-chloro-5,5-dimethyl-3,4,5,6-tetra-hydro-[1,1′-biphenyl]-2-yl)methyl)piperazin-1-yl)-N-((3-(2-(dimethylamino)ethyl)-5-nitro-3,4-dihydro-2H-benzo[b][1,4]oxazin-7-yl)sulfonyl)benzamide]	34
8	CC1(C)CCC(CN2CCN(c3ccc(C(=O)NS(=O)(=O)c4cc5c(c([N+](=O)[O-])c4)N[C@H](CCO)CO5)c(Oc4cnc5[nH]ccc5c4)c3)CC2)=C(c2ccc(Cl)cc2)C1 [Example 2-17, (R)-2-((1H-pyrrolo[2,3-b]pyridin-5-yl)oxy)-4-(4-((4′-chloro-5,5-dimethyl-3,4,5,6-tetra-hydro-[1,1′-biphenyl]-2-yl)methyl)piperazin-1-yl)-N-((3-(2-hydroxyethyl)-5-nitro-3,4-dihydro-2H-benzo[b][1,4]oxazin-7-yl)sulfo-nyl)benzamide]	20
4	CC1(C)CCC(CN2CCN(c3ccc(C(=O)NS(=O)(=O)c4cc5c(c([N+](=O)[O-])c4)N[C@@H](CN4CCOCC4)CO5)c(Oc4cnc5[nH]ccc5c4)c3)CC2)=C(c2ccc(Cl)cc2)C1 [Example 2-18, (S)-2-((1H-pyrrolo[2,3-b]pyridin-5-yl)oxy)-4-(4-((4′-chloro-5,5-dimethyl-3,4,5,6-tetra-hydro-[1,1′-biphenyl]-2-yl)methyl)piperazin-1-yl)-N-((3-(morpholinomethyl)-5-nitro-3,4-dihydro-2H-benzo[b][1,4]oxazin-7-yl)sulfonyl)benzamide]	9
36	CC1(C)CCC(CN2CCN(c3ccc(C(=O)NS(=O)(=O)c4cc5c(c([N+](=O)[O-])c4)N[C@@H](CN4CCC(C)(O)CC4)CO5)c(Oc4cnc5[nH]ccc5c4)c3)CC2)=C(c2ccc(Cl)cc2)C1 [Example 2-19, (S)-2-((1H-pyrrolo[2,3-b]pyridin-5-yl)oxy)-4-(4-((4′-chloro-5,5-dimethyl-3,4,5,6-tetra-hydro-[1,1′-biphenyl]-2-yl)methyl)piperazin-1-yl)-N-((3-((4-hydroxy-4-methylpiperidin-1-yl)methyl)-5-nitro-3,4-dihydro-2H-ben-zo[b][1,4]oxazin-7-yl)sulfonyl)benzamide]	70
29	CN(C)C[C@H]1COc2cc(S(=O)(=O)NC(=O)c3ccc(N4CCN(CC5=C(c6ccc(Cl)cc6)CC(C)(C)CC5)CC4)cc3Oc3cnc4[nH]ccc4c3)cc([N+](=O)[O-])c2N1 [Example 2-20, (S)-2-((1H-pyrrolo[2,3-b]pyridin-5-yl)oxy)-4-(4-((4′-chloro-5,5-dimethyl-3,4,5,6-tetra-hydro-[1,1′-biphenyl]-2-yl)methyl)piperazin-1-yl)-N-((3-((dimethylamino)methyl)-5-nitro-3,4-dihydro-2H-benzo[b][1,4]oxazin-7-yl)sulfonyl)benzamide]	59
1	CC1(C)CCC(CN2CCN(c3ccc(C(=O)NS(=O)(=O)c4cc5c(c([N+](=O)[O-])c4)N[C@H](CN4CC(C)(O)C4)CO5)c(Oc4cnc5[nH]ccc5c4)c3)CC2)=C(c2ccc(Cl)cc2)C1 [Example 2-21, (R)-2-((1H-pyrrolo[2,3-b]pyridin-5-yl)oxy)-4-(4-((4′-chloro-5,5-dimethyl-3,4,5,6-tetra-hydro-[1,1′-biphenyl]-2-yl)methyl)piperazin-1-yl)-N-((3-((3-hydroxy-3-methylazetidin-1-yl)methyl)-5-nitro-3,4-dihydro-2H-ben-zo[b][1,4]oxazin-7-yl)sulfonyl)benzamide]	8
